The values that follow come from US20050222055A1 (priority 2002, published 2005).

The target in test [1] is RRE RNA. The test is described as follows: Bond constant by competitive luminescence anisotropy (CRP probe displacement), RRE RNA. Conditions: luminescence anisotropy competition with CRP, 20° C., HEPES pH 7.5; read-out: binding force (KD) against RRE RNA. Here is the method: (§1) A sense DNA of 16S rRNA (sequence listing 1) and an antisense DNA of 16S rRNA (sequence listing 2); a sense DNA of RRE RNA (sequence listing 3) and an antisense DNA of RRE RNA (sequence listing 4); and a sense DNA of 23S RNA (sequence listing 5) and an antisense DNA of 23S RNA (sequence listing 6) was prepared according to the present invention.
(§2) Paricularly, the two DNAs comprising sense and antisense (2.5 nanomole, respectively), 5× buffer solution (200 mM Tris-HCl, 30 mM MgCl2, 10 mM spermidine, 50 mM NaCl, pH 7.9; 20 μl), 100 mM DL-dithiotheitol (DTT; 20 μl), four nucleotide tri phosphate mixture (2.5 mM, 20 μl), T7 RNA polymerase (50 units/mL; 1 μl) and diluted water (34 μl) were mixed and cultured at 37° C. for 2 hours. And then 1 unit/ml of Rnase-free RQ1 Dnase was added to the mixture and cultured at 37° C. for 10 minutes. 100 μl of a PCI mixture solution (phenol:chloroform:[…]=25:24:1) was added to the obtained mixture, mixed at room temperature for 5 minutes and then centrifuged at 1400 rpm for 10 minutes. […]
(§3) The paromomycin bonded with tetramethylrhodamine (hereinafter referred to as “[…]”) is used as a luminescence fluorescent probe. The luminescence anisotropy is measured by establishing a thermostat of 20° C. at the Perkin-Elmer LS-50B luminescence spectroscope. The luminescence absorptance of CRP is 510 nm and its luminescence fluorescent is observed at 550 nm. […]

The target in test [2] is 16S rRNA. The test is described as follows: Bond constant by competitive luminescence anisotropy (CRP probe displacement), 16S rRNA. The settings on record: luminescence anisotropy competition with CRP, 20° C., HEPES pH 7.5; read-out: binding force (KD) against 16s rRNA. Here is the method: as §1, §2, §3
Test [3] has as its target 23S rRNA. Briefly: Bond constant by competitive luminescence anisotropy (CRP probe displacement), 23S rRNA. Conditions: read-out: binding force (KD) against 23S RNA; luminescence anisotropy competition with CRP, 20° C., HEPES pH 7.5; read-out: binding force (KD) against 32S RNA. Here is the method: as §1, §2, §3

With Neomycin, the Kd (usually the equilibrium constant for the complex coming apart) in test [1] is 180 nM; in test [2], > 2000 nM; in test [3] it was > 2000 nM.
